According to patent US12437835B2, “Interrogatory cell-based assays and uses thereof” (Berg LLC, priority 2012, dated 2025):
“Also recorded” adds a separate entry of the source.

Legend:
[1] = target: FASN (Mus musculus, UniProt P19096); settings: in vivo; cited from earlier work
[2] = target: T1, ENO1 (Homo sapiens, UniProt P06733); assay: Global enzyme activity analysis (ATP/ADP probe, LC-MS/MS) in HepG2; format: cell-based; settings: HepG2, Sorafenib 1 μM, 24 hours; relative to control, untreated sample
T1 construct: endogenous in cells; host or cells: HepG2 (ATCC HB-8065)
T1 sequence (P06733 whole entry): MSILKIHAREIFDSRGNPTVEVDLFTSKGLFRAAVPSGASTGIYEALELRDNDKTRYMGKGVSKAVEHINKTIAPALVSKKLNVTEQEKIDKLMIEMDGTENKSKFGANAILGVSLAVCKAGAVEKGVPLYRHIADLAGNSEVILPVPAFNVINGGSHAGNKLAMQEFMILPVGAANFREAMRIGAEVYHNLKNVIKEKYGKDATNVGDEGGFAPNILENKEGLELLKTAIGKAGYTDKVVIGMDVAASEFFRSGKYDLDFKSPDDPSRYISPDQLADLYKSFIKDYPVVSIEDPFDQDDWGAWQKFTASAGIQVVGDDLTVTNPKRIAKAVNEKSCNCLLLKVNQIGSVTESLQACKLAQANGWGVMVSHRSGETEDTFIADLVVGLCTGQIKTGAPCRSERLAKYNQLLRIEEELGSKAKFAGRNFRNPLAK
Text: (§1) Multikinase inhibitor Sorafenib, a first line chemotherapeutic agent for the advanced HCC patients, was used to probe the role of global kinase activity and protein phosphorylation changes associated with this treatment. The HepG2 (ATCC Ascension No. HB-8065) cell line was selected to model HCC cells and the THLE2 (ATCC Ascension No. CRL-10149) cell line was selected to model normal hepatic cells.
(§2) FIG. 41B illustrates a method for global enzyme (e.g., kinase) enrichment profiling. First, a cell lysate including the targeted enzyme (e.g., kinase) is parepared. The second step is probe binding (e.g., an ATP probe in the case of kinase). Theny the enzyme is digested and brobe-bound fragments are captured. These fragments can be analyzed (e.g., by LC-MS/MS) and the corresponding protein thus identified (e.g., via a database search of the LC-Ms/MS data).
(§3) THERMO SCIENTIFIC© PIERCE® Kinase Enrichment Kits and ACTIVX© probes (instructions available from THERMO SCIENTIFIC© and PIERCE® Biotechnology www.thermoscientific.com/pierce) were used for global enzyme activity analysis. Briefly, these and similar kits enable selective labeling and enrichment of ATPases including kinases, chaperones and metabolic enzymes. ATP and ADP Probes are generally nucleotide derivatives, which covalently modify the active site of enzymes with conserved lysine residues in the nucleotide-binding site. For example, the structure of desthiobiotin-ATP and -ADP consists of a modified biotin attached to the nucleotide by a labile acyl-phosphate bond. Depending on the position of the lysine within the enzyme active site, either desthiobiotin-ATP or -ADP can be preferred for labeling specific ATPases.
(§4) The cells were cultured according to the following protocol. Day 1: HepG2/Hep3B—seed 3.2×10^6 cells in T-75 culture flasks; 7.4×10^6 cells in T-175 culture flasks; or 9.5×10^6 cells in T-225 culture flasks. THLE-2—seed 1.3×10^6 cells in T-75 culture flasks. Day 2: 16-24 hours later, at 50-70% confluence—add treatment. Control: DMSO at final concentration of 0.01%. EGF: 500 ng/mL in 10 mM acetic acid. […]

[3] = target: T2, LDHA (Homo sapiens, UniProt P00338); assay: as above; format: cell-based; settings: HepG2, Sorafenib 1 μM, 24 hours
T2 construct: endogenous in cells; host or cells: HepG2
Text: as §1, §2, §3, §4

[4] = target: T3, PGK1 (Homo sapiens, UniProt P00558); assay: as above; format: cell-based; settings: HepG2, Sorafenib 1 μM, 24 hours
T3 construct: endogenous in cells; host or cells: HepG2 (ATCC HB-8065)
T3 sequence (P00558 1-417): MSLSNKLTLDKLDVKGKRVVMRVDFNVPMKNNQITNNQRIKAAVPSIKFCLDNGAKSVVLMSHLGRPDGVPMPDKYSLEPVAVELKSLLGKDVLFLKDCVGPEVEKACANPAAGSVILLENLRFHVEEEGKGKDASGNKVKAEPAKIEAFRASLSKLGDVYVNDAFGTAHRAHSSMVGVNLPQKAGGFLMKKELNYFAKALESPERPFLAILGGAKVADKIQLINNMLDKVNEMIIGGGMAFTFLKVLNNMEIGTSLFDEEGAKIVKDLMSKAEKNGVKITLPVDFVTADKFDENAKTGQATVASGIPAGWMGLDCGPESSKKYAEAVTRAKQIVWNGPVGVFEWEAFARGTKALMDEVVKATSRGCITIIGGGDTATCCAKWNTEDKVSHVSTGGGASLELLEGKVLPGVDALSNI
Text: as §1, §2, §3, §4

[5] = test system: LDHA; assay: Protein expression (quantitative proteomics) in HepG2; format: cell-based, Homo sapiens; settings: HepG2, Sorafenib 1 μM, 24 hours
Protocol: as §1
The cells were cultured according to the following protocol. Day 1: HepG2/Hep3B—seed 3.2×10^6 cells in T-75 culture flasks; 7.4×10^6 cells in T-175 culture flasks; or 9.5×10^6 cells in T-225 culture flasks. THLE-2—seed 1.3×10^6 cells in T-75 culture flasks. Day 2: 16-24 hours later, at 50-70% confluence—add treatment. Control: DMSO at final concentration of 0.01%. EGF: 500 ng/mL in 10 mM acetic acid. Sorafenib: 1 μM at 0.1% volume in DMSO. Day 3: 24 hours after treatment, harvest cells by trypsinization. Wash pellets 2× with PBS before freezing.
Thus, the phospho proteome affords an additional layer of information that can be used for elucidating the complex relationship between the effect of an extracellular signal (e.g., drug molecule) on kinase activity and total cellular protein, thereby facilitating the identification of disease treatment targets, as well as diagnostic/prognostic markers associated with disease.

Sequence of FASN (P19096 whole entry): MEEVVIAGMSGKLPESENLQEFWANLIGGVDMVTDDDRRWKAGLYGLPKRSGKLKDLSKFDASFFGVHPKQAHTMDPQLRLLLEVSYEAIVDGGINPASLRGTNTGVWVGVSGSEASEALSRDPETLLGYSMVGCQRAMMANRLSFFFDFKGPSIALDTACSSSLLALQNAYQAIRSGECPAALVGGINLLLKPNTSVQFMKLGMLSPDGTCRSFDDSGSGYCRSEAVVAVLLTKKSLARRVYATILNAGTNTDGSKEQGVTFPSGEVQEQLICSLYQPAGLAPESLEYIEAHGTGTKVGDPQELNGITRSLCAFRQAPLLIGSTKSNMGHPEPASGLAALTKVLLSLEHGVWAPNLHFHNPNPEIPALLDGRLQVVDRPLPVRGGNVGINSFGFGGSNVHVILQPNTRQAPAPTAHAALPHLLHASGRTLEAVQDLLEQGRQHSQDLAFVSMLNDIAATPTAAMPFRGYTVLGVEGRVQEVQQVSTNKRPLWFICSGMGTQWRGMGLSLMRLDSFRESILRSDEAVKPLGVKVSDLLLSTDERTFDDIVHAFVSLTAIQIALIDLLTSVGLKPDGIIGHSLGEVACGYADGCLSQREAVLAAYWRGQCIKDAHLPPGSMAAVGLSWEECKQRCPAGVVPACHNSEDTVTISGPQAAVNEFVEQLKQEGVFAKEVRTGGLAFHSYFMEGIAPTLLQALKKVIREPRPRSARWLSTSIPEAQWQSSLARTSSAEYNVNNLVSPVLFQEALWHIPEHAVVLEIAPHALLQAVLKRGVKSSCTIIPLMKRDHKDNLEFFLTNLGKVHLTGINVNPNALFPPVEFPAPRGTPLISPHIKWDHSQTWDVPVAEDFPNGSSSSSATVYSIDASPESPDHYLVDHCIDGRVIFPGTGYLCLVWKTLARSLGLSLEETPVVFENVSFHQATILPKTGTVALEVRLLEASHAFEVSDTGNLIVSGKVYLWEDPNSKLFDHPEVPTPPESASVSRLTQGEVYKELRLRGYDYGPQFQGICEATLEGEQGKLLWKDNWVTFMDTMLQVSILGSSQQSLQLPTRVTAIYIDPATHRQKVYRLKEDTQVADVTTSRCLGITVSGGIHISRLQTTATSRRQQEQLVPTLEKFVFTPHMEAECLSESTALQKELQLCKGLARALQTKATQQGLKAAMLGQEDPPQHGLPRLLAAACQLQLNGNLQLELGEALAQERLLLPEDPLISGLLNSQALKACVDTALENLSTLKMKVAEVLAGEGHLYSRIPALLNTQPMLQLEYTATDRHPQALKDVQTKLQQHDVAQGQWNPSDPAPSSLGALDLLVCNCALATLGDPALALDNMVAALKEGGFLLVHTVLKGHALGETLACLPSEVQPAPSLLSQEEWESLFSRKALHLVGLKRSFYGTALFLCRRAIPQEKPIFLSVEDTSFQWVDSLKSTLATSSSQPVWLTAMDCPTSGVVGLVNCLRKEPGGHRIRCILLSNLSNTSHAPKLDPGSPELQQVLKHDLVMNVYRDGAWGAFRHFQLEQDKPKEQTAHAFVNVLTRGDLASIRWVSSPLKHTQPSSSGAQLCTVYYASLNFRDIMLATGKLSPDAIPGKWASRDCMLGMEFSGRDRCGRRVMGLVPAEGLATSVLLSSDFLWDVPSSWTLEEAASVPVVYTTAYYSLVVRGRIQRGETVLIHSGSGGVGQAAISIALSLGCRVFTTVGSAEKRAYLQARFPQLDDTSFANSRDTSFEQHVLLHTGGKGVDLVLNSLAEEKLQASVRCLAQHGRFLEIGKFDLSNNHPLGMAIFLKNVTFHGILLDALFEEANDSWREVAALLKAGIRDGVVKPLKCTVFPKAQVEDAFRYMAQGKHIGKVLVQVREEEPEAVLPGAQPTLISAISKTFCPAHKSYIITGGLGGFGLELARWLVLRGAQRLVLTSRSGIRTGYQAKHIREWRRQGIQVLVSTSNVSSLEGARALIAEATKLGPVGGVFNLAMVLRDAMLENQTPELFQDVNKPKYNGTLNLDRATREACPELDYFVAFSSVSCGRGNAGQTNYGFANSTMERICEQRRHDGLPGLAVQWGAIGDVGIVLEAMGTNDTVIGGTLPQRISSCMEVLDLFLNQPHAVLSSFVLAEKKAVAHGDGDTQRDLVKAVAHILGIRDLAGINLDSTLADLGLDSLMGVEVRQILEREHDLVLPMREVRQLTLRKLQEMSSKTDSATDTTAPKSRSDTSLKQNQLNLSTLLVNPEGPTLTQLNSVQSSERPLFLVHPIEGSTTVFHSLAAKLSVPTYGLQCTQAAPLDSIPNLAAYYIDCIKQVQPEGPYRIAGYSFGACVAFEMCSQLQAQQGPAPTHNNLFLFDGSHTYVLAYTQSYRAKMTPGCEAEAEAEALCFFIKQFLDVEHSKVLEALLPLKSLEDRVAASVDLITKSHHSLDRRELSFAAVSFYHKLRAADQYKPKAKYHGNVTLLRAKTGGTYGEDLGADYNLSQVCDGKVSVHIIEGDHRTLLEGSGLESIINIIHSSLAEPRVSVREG

For `C=C1C(=O)OC(CCCCCCCC)C1C(=O)O` (centres unmarked) [C75], the food intake [1] is listed as “reducing food intake” and the weight loss [1] is listed as “weight loss”.

In the case of `C/C=C/C/C=C/CCC(=O)[C@H]1O[C@H]1C(N)=O` [Cerulenin], the food intake [1] is listed as “reducing food intake” and the weight loss [1] is listed as “weight loss”.

In the case of `CNC(=O)c1cc(Oc2ccc(NC(=O)Nc3ccc(Cl)c(C(F)(F)F)c3)cc2)ccn1` [Sorafenib], the ENO1 activity [2] was “significant decrease; also recorded: downregulating”, the LDHA activity [3] was “significant decrease; also recorded: downregulating” and the PGK1 activity [4] was “significant decrease; also recorded: downregulating”. The LDHA protein expression [5] was “upregulation”.
